Legend:
[1] = biological target: T1, human EP4 (Homo sapiens, UniProt P35408); test: cAMP Gs functional assay (HTRF cAMP dynamic-2) in EP4-transfected HEK293 cells; assay type: cell-based; conditions: HEK293 cells transfected with EP4 BacMam virus; for EC50: 30 min at 37° C., HTRF cAMP, read-out: cAMP human EP4 pEC50 (converted); for cAMP human EP4 Emax: positive control PGE2
T1 construct: expressed in transfected cells; host or cells: HEK293 cells transduced with EP4 BacMam baculovirus
Protocol: Cloning, Baculovirus generation, large scale infection of HEK293 cells and membrane preparation: Human prostaglandin E2 receptor 4 (EP4) was cloned into pBacMam expression vector (GeneScript, UK). Transposition of EP4 DNA was performed using Invitrogen's Bac-to-Bac Baculovirus Expression Systems. P0 baculovirus was generated by transfecting SF9 Cells with bacmid DNA using Cellfectin II transfection reagent (ThermoFisher Scientific, UK). Following P0 generation P1 virus was then generated ready for large scale infection and membrane preparation. HEK293 cells were grown in DMEM (ThermoFisher Scientific, UK), supplemented with 10% heat inactivated fetal bovine serum (FBS). Cells were infected at a seeding density of 3.5 million cells/mL in 500 cm^3 flasks at 5% v/v EP4 Bacman. Expression was carried out over a 36 hour period at 37° C. with 5% CO2. The cells were removed using PBS and a cell scrapper. The cell culture was centrifuged at 2500 RPM for 10 mins at 4° C. The supernatant was then poured off and the pellet stored at −80° C. The pellet was defrosted and re-suspended in 15 mL of homogenising buffer (20 mM HEPES, 10 mM EDTA, pH 7.4). Then homogenised in mechanical homogeniser (VMR) for 10 seconds. The membrane was centrifuged in centrifuge tubes at 40,000 g for 15 mins at 4° C. The supernatant was poured away and re-suspended in 15 mL of homogenising buffer and homogenised for 20 seconds. The membrane was then centrifuged at 40,000 g for 45 mins at 4° C. The membrane was then re-suspended in 3 mL of storage buffer (20 mM HEPES, 0.1 mM EDTA, pH 7.4) mixing well. The resulting membranes were then stored at −80° C.
cAMP Gs Functional Assay: cAMP production following EP4 receptor activation was determined using the Homogeneous Time-Resolved Fluorescence (HTRF) cAMP dynamic-2 assay (Cisbio, France). HEK293 cells were transfected using a 0.5% EP4 Bacman virus for 36 hours, before dissociating the cells, and freezing at −150° C.
On the day of testing, increasing concentration of test compounds, alongside positive controls ([…] PGE2 (Tocris, Abingdon, UK)) and negative control (DMSO (Sigma-Aldrich, UK) were added to a ProxiPlate-384 Plus, White 384-shallow well Mircoplate, (PerkinElmer, USA) using the ECHO dispense.
Cells were defrosted in a water bath and resuspended in DMEM supplemented with 10% FBS before centrifuging at 1200 RPM for 5 mins to form a pellet. The pellet was resuspended in assay buffer (DMEM+0.5 mM IBMX (Tocris, Abingdon, UK)) to 0.5×10^6 cells/mL. Cell suspension, for a final assay concentration of 5000 cell/well was added using the multidrop to the pre-dispensed assay plate. The plate was then incubated at 37° C. for 30 mins, with 5% CO2. The cAMP production was determined as manufacturer's instructions, before plates were read on a PheraStar fluorescence plate reader (BMG LabTech, Germany).

[2] = Unidirectional Caco-2 cell permeability assay; assay type: in vitro ADME; conditions: human, apical pH 6.5, basolateral pH 7.4, 1 hour, 37° C., n=2
Protocol: Caco-2 cells (ECACC) were seeded onto 24-well Transwell plates at 2×10^5 cells per well and used in confluent monolayers after a 21 day culture at 37° C. under 500 CO2. Test compounds were incubated at 10 μM, 0.2% DMSO final, n=2 in assay buffer (Hanks balanced salt solution supplemented with 25 mM HEPES, adjusted to pH 6.5). Hanks balanced salt solution supplemented with 25 mM HEPES, adjusted to pH 7.4 (0.2% DMSO final) was used for the basolateral chamber (as receiver).
Incubations were performed at 37° C., with samples removed from both donor and acceptor chambers at T=0 and 1 hour and compound analysed by mass spectrometry (LC-MS/MS) including an analytical internal standard ([…] carbamazepine).
Apparent permeability (Papp) values are shown in Table 3 and were determined from the relationship:
Where V is the volume of each Transwell compartment (apical 125 μL, basolateral 600 μL), and concentrations are the relative MS responses for compound (normalized to internal standard) in the donor chamber before incubation and acceptor chamber at the end of the incubation Area=area of cells exposed for drug transfer (0.33 cm^2).
Lucifer Yellow (LY) was added to the apical buffer in all wells to assess viability of the cell layer. As LY cannot freely permeate lipophilic barriers, a high degree of LY transport indicates poor integrity of the cell layer and wells with a LY Papp>10×10^−6 cm/s were rejected.
Compound recovery from the wells was determined from MS responses (normalized to internal standard) in donor and acceptor chambers at the end of incubation compared to response in the donor chamber pre-incubation.

T1 sequence (P35408 whole entry): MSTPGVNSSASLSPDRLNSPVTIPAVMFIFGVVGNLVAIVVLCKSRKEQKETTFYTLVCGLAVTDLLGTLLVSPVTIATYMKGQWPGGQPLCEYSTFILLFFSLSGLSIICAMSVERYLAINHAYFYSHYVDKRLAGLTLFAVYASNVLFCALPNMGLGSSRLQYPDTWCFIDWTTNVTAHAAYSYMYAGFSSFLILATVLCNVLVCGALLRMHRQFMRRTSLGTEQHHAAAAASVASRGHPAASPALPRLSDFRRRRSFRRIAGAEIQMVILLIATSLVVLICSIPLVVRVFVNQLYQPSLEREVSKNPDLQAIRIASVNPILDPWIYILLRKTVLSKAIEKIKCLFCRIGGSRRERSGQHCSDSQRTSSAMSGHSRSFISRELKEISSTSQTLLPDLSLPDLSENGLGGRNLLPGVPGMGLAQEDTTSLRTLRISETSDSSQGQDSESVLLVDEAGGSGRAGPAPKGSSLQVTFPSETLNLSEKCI

Structure (SMILES) | EC50 [1] [nM] | cAMP human EP4 Emax [1] [%] | Papp A→B at 1 h, 10 μM [2] [×10⁻⁶ cm/s]
Cc1cc(O)ccc1-c1cccc(CN2CCC[C@@H]2C(=O)N[C@@H](C)c2ccc(C(=O)O)cc2)c1 [Example 1] | 2 | 81 | 14.5
Cc1cc(S(N)(=O)=O)ccc1-c1cccc(CN2CCC[C@@H]2C(=O)N[C@@H](C)c2ccc(C(=O)O)cc2)c1 [Example 2, 4-((S)-1-((R)-1-((2′-methyl-4′-sulfamoyl-[1,1′-biphenyl]-3-yl)methyl)pyrrolidine-2-carboxamido)ethyl)benzoic acid] | 1.58 | 99 | 1.14
Cc1cc(C(N)=O)ccc1-c1cccc(CN2CCC[C@@H]2C(=O)N[C@@H](C)c2ccc(C(=O)O)cc2)c1 [Example 3, 4-((S)-1-((R)-1-((4′-carbamoyl-2′-methyl-[1,1′-biphenyl]-3-yl)methyl)pyrrolidine-2-carboxamido)ethyl)benzoic acid] | 12.6 | 100 | 1.18
Cc1cc(S(N)(=O)=O)ccc1-c1cccc(CN2C[C@H](O)C[C@@H]2C(=O)N[C@@H](C)c2ccc(C(=O)O)cc2)c1 [Example 4, 4-((S)-1-((2R,4R)-4-hydroxy-1-((2′-methyl-4′-sulfamoyl-[1,1′-biphenyl]-3-yl)methyl)pyrrolidine-2-carboxamido)ethyl)benzoic acid] | 158 | 98 | 0.26
Cc1cc(O)ccc1-c1cccc(CN2C[C@H](O)C[C@@H]2C(=O)N[C@@H](C)c2ccc(C(=O)O)cc2)c1 [Example 5, 4-((S)-1-((2R,4R)-4-hydroxy-1-((4′-hydroxy-2′-methyl-[1,1′-biphenyl]-3-yl)methyl)pyrrolidine-2-carboxamido)ethyl)benzoic acid] | 63.1 | 80 | 0.36
Cc1cc(C(N)=O)ccc1-c1cccc(CN2C[C@H](O)C[C@@H]2C(=O)N[C@@H](C)c2ccc(C(=O)O)cc2)c1 [Example 6, 4-((S)-1-((2R,4R)-1-((4′-carbamoyl-2′-methyl-[1,1′-biphenyl]-3-yl)methyl)-4-hydroxypyrrolidine-2-carboxamido)ethyl)benzoic acid] | 501 | 91 | 0.85
C[C@H](NC(=O)[C@H]1CCCN1Cc1cccc(-c2ccc(O)cc2)c1)c1ccc(C(=O)O)cc1 [Example 7, 4-((S)-1-((R)-1-((4′-hydroxy-[1,1′-biphenyl]-3-yl)methyl)pyrrolidine-2-carboxamido)ethyl)benzoic acid] | > 10000 | – | 7.71
C[C@H](NC(=O)[C@H]1CCCN1Cc1cccc(-c2ccc(O)cc2C#N)c1)c1ccc(C(=O)O)cc1 [Example 8, 4-((S)-1-((R)-1-((2′-cyano-4′-hydroxy-[1,1′-biphenyl]-3-yl)methyl)pyrrolidine-2-carboxamido)ethyl)benzoic acid] | 31.6 | 74 | 2.1
Cc1cc(C(=O)O)ccc1-c1cccc(CN2CCC[C@@H]2C(=O)N[C@@H](C)c2ccc(C(=O)O)cc2)c1 [Example 9, 3′-(((R)-2-(((S)-1-(4-carboxyphenyl)ethyl)carbamoyl)pyrrolidin-1-yl)methyl)-2-methyl-[1,1′-biphenyl]-4-carboxylic acid] | 200 | 96 | 0.33
Cc1cc(OS(N)(=O)=O)ccc1-c1cccc(CN2CCC[C@@H]2C(=O)N[C@@H](C)c2ccc(C(=O)O)cc2)c1 [Example 10] | 2 | 96 | 1.84
C[C@H](NC(=O)[C@H]1CCCN1Cc1cccc(-c2ccc(C(N)=O)cc2O)c1)c1ccc(C(=O)O)cc1 [Example 11, 4-((S)-1-((R)-1-((4′-carbamoyl-2′-hydroxy-[1,1′-biphenyl]-3-yl)methyl)pyrrolidine-2-carboxamido)ethyl)benzoic acid] | 20 | 92 | 0.18
C[C@H](NC(=O)[C@H]1CCCN1Cc1ccc(O)c(-c2ccc(C(N)=O)cc2)c1)c1ccc(C(=O)O)cc1 [Example 12, 4-((S)-1-((R)-1-((4′-carbamoyl-6-hydroxy-[1,1′-biphenyl]-3-yl)methyl)pyrrolidine-2-carboxamido)ethyl)benzoic acid] | 7.94 | 89 | 0.26
Cc1cc(C(N)=O)ccc1-c1cc(O)cc(CN2CCC[C@@H]2C(=O)N[C@@H](C)c2ccc(C(=O)O)cc2)c1 [Example 13] | 0.251 | 99 | 0.34
Cc1cc(C(N)=O)ccc1-c1cc(CN2CCC[C@@H]2C(=O)N[C@@H](C)c2ccc(C(=O)O)cc2)ccc1O [Example 14] | 158 | 100 | 0.19
Cc1cc(C(N)=O)ccc1-c1cccc(CN2CCC[C@@H]2C(=O)NCc2ccc(C(=O)O)c(O)c2)c1 [Example 15, (R)-4-((1-((4′-carbamoyl-2′-methyl-[1,1′-biphenyl]-3-yl)methyl)pyrrolidine-2-carboxamido)methyl)-2-hydroxybenzoic acid] | 31.6 | 96 | < 0.1
Cc1cc(C(N)=O)ccc1-c1cccc(CN2CCC[C@@H]2C(=O)N[C@@H](C)c2ccc(C(=O)O)c(O)c2)c1 [Example 17, 4-((S)-1-((R)-1-((4′-carbamoyl-2′-methyl-[1,1′-biphenyl]-3-yl)methyl)pyrrolidine-2-carboxamido)ethyl)-2-hydroxybenzoic acid] | 63.1 | 97 | –
Cc1cc(C(N)=O)ccc1-c1cncc(CN2C[C@H](O)C[C@@H]2C(=O)N[C@@H](C)c2ccc(C(=O)O)cc2)c1 [Example 25, 4-((S)-1-((2R,4R)-1-((5-(4-carbamoyl-2-methylphenyl)pyridin-3-yl)methyl)-4-hydroxypyrrolidine-2-carboxamido)ethyl)benzoic acid] | 1260 | 91 | –
Cc1cc(C(N)=O)ccc1-c1cc(CN2CCC[C@@H]2C(=O)N[C@@H](C)c2ccc(C(=O)O)cc2)c[n+]([O-])c1 [Example 26, 3-(4-carbamoyl-2-methylphenyl)-5-(((R)-2-(((S)-1-(4-carboxyphenyl)ethyl)carbamoyl)pyrrolidin-1-yl)methyl)pyridine 1-oxide] | > 1000 | – | –
Cc1cc(S(N)(=O)=O)ccc1-c1cccc(CN2CC3CC2(C(=O)N[C@@H](C)c2ccc(C(=O)O)cc2)C3)c1 [Example 32, (S)-4-(1-(2-((2′-methyl-4′-sulfamoyl-[1,1′-biphenyl]-3-yl)methyl)-2-azabicyclo[2.1.1]hexane-1-carboxamido)ethyl)benzoic acid] | 0.398 | 90 | –

Reference: patent US20260042745A1, “PYRROLIDINE-2-CARBOXAMIDE DERIVATIVES AS PROSTAGLANDIN E2 RECEPTOR 4 (EP4) AGONISTS FOR THE TREATMENT OF GASTROINTESTINAL AND PULMONARY DISEASES” (NXERA PHARMA UK LIMITED, priority 2022, published 2026)
